# Experiments:
# Assay in all cases: Test B pre-/postemergence
# Format in all cases: in vivo
# Set-up in all cases: key: 0 is no effect; 10 is complete control
# [1] = tested on: wheat (Triticum aestivum)
# Summary of the method: (§1)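 Scored visually 0 (none) to 10 (complete control) against untreated plants after twelve to sixteen greenhouse days. Test chemicals, formulated in surfactant-containing non-phytotoxic solvent, applied to soil after planting and, separately, onto 1- to 4-leaf (2–18 cm) plants.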
# [2] = tested on: pigweed (Amaranthus retroflexus)
# Summary of the method: as §1
# [3] = tested on: velvetleaf (Abutilon theophrasti)
# Summary of the method: as §1
# [4] = tested on: soybean (Glycine max)
# Summary of the method: as §1
# [5] = tested on: broadleaf signalgrass (Brachiaria decumbens)
# Summary of the method: as §1
# [6] = tested on: rape (Brassica napus)
# Summary of the method: as §1
# [7] = tested on: purple nutsedge (Cyperus rotundus)
# Summary of the method: as §1
# [8] = tested on: bedstraw (Galium aparine)
# Summary of the method: as §1
# [9] = tested on: sugar beet (Beta vulgaris)
# Summary of the method: as §1
# [10] = tested on: cocklebur (Xanthium strumarium)
# Summary of the method: as §1
# [11] = tested on: corn (Zea mays)
# Summary of the method: as §1
# [12] = tested on: giant foxtail (Setaria faberii)
# Summary of the method: as §1
# [13] = tested on: crabgrass (Digitaria sanguinalis)
# Summary of the method: as §1
# [14] = tested on: momingglory (Ipomoea hederacea)
# Summary of the method: as §1
# [15] = Preemergence, Rate 62 g/ha, scale of 0 to 10
compound,measurement,setting,value
Cc1cnc(-n2cnc(C(F)(F)F)c2)nc1C(=O)c1cccc(C(F)(F)F)c1 [Compound 61],"Plant response rating, Wheat",[1]; [15],1
same,Wheat plant response rating,"[1]; Rate 62 g/ha, Postemergence",3
same,Wheat plant response rating,"[1]; Rate 125 g/ha, Postemergence",3
same,"Plant response rating, Wheat","[1]; Rate 125 g/ha, Preemergence",3
same,"Plant response rating, Wheat","[1]; Rate 250 g/ha, Postemergence",3
same,"Plant response rating, Wheat","[1]; Rate 250 g/ha, Preemergence",4
same,"Plant response rating, Wheat","[1]; Rate 500 g/ha, Postemergence",4
same,"Plant response rating, Wheat","[1]; Rate 500 g/ha, Preemergence",4
same,"Plant response rating, Redroot pigweed",[2]; [15],8
same,Redroot pigweed plant response rating,"[2]; Rate 62 g/ha, Postemergence",8
same,Redroot pigweed plant response rating,"[2]; Rate 125 g/ha, Postemergence",9
same,"Plant response rating, Redroot pigweed","[2]; Rate 125 g/ha, Preemergence",9
same,"Plant response rating, Redroot pigweed","[2]; Rate 250 g/ha, Postemergence",9
same,"Plant response rating, Redroot pigweed","[2]; Rate 250 g/ha, Preemergence",9
same,"Plant response rating, Redroot pigweed","[2]; Rate 500 g/ha, Postemergence",9
same,"Plant response rating, Redroot pigweed","[2]; Rate 500 g/ha, Preemergence",10
same,"Plant response rating, Velvetleaf",[3]; [15],9
same,Velvetleaf plant response rating,"[3]; Rate 62 g/ha, Postemergence",7
same,Velvetleaf plant response rating,"[3]; Rate 125 g/ha, Postemergence",7
same,"Plant response rating, Velvetleaf","[3]; Rate 125 g/ha, Preemergence",10
same,"Plant response rating, Velvetleaf","[3]; Rate 250 g/ha, Postemergence",8
same,"Plant response rating, Velvetleaf","[3]; Rate 250 g/ha, Preemergence",10
same,"Plant response rating, Velvetleaf","[3]; Rate 500 g/ha, Postemergence",8
same,"Plant response rating, Velvetleaf","[3]; Rate 500 g/ha, Preemergence",10
same,"Plant response rating, Soybean",[4]; [15],0
same,Soybean plant response rating,"[4]; Rate 62 g/ha, Postemergence",4
same,Soybean plant response rating,"[4]; Rate 125 g/ha, Postemergence",5
same,"Plant response rating, Soybean","[4]; Rate 125 g/ha, Preemergence",1
same,"Plant response rating, Soybean","[4]; Rate 250 g/ha, Postemergence",5
same,"Plant response rating, Soybean","[4]; Rate 250 g/ha, Preemergence",1
same,"Plant response rating, Soybean","[4]; Rate 500 g/ha, Postemergence",6
same,"Plant response rating, Soybean","[4]; Rate 500 g/ha, Preemergence",2
same,B. signalgrass plant response rating,"[5]; Rate 62 g/ha, Postemergence",3
same,B. signalgrass plant response rating,"[5]; Rate 62 g/ha, Preemergence",5
same,B. signalgrass plant response rating,"[5]; Rate 125 g/ha, Postemergence",4
same,"Plant response rating, B. signalgrass","[5]; Rate 125 g/ha, Preemergence",7
same,"Plant response rating, B. signalgrass","[5]; Rate 250 g/ha, Postemergence",4
same,"Plant response rating, B. signalgrass","[5]; Rate 250 g/ha, Preemergence",8
same,"Plant response rating, B. signalgrass","[5]; Rate 500 g/ha, Postemergence",5
same,"Plant response rating, B. signalgrass","[5]; Rate 500 g/ha, Preemergence",9
same,"Plant response rating, Rape",[6]; [15],4
same,Rape plant response rating,"[6]; Rate 62 g/ha, Postemergence",6
same,Rape plant response rating,"[6]; Rate 125 g/ha, Postemergence",7
same,"Plant response rating, Rape","[6]; Rate 125 g/ha, Preemergence",8
same,"Plant response rating, Rape","[6]; Rate 250 g/ha, Postemergence",8
same,"Plant response rating, Rape","[6]; Rate 250 g/ha, Preemergence",9
same,"Plant response rating, Rape","[6]; Rate 500 g/ha, Postemergence",9
same,"Plant response rating, Rape","[6]; Rate 500 g/ha, Preemergence",9
same,"Plant response rating, Nutsedge",[7]; [15],0
same,Nutsedge plant response rating,"[7]; Rate 62 g/ha, Postemergence",0
same,Nutsedge plant response rating,"[7]; Rate 125 g/ha, Postemergence",0
same,"Plant response rating, Nutsedge","[7]; Rate 125 g/ha, Preemergence",0
same,"Plant response rating, Nutsedge","[7]; Rate 250 g/ha, Postemergence",0
same,"Plant response rating, Nutsedge","[7]; Rate 250 g/ha, Preemergence",0
same,"Plant response rating, Bedstraw",[8]; [15],3
same,Bedstraw plant response rating,"[8]; Rate 62 g/ha, Postemergence",8
same,Bedstraw plant response rating,"[8]; Rate 125 g/ha, Postemergence",8
same,"Plant response rating, Bedstraw","[8]; Rate 125 g/ha, Preemergence",4
same,"Plant response rating, Bedstraw","[8]; Rate 250 g/ha, Postemergence",9
same,"Plant response rating, Bedstraw","[8]; Rate 250 g/ha, Preemergence",6
same,"Plant response rating, Bedstraw","[8]; Rate 500 g/ha, Postemergence",9
same,"Plant response rating, Bedstraw","[8]; Rate 500 g/ha, Preemergence",9
same,"Plant response rating, Sugarbeets",[9]; [15],10
same,Sugarbeets plant response rating,"[9]; Rate 62 g/ha, Postemergence",9
same,Sugarbeets plant response rating,"[9]; Rate 125 g/ha, Postemergence",10
same,"Plant response rating, Sugarbeets","[9]; Rate 125 g/ha, Preemergence",10
same,"Plant response rating, Sugarbeets","[9]; Rate 250 g/ha, Postemergence",10
same,"Plant response rating, Sugarbeets","[9]; Rate 250 g/ha, Preemergence",10
same,"Plant response rating, Sugarbeets","[9]; Rate 500 g/ha, Postemergence",10
same,"Plant response rating, Sugarbeets","[9]; Rate 500 g/ha, Preemergence",10
same,"Plant response rating, Cocklebur",[10]; [15],0
same,Cocklebur plant response rating,"[10]; Rate 62 g/ha, Postemergence",3
same,Cocklebur plant response rating,"[10]; Rate 125 g/ha, Postemergence",7
same,"Plant response rating, Cocklebur","[10]; Rate 125 g/ha, Preemergence",0
same,"Plant response rating, Cocklebur","[10]; Rate 250 g/ha, Postemergence",8
same,"Plant response rating, Cocklebur","[10]; Rate 250 g/ha, Preemergence",1
same,"Plant response rating, Cocklebur","[10]; Rate 500 g/ha, Postemergence",8
same,"Plant response rating, Cocklebur","[10]; Rate 500 g/ha, Preemergence",10
same,"Plant response rating, Corn",[11]; [15],1
same,Corn plant response rating,"[11]; Rate 62 g/ha, Postemergence",2
same,Corn plant response rating,"[11]; Rate 125 g/ha, Postemergence",3
same,"Plant response rating, Corn","[11]; Rate 125 g/ha, Preemergence",1
same,"Plant response rating, Corn","[11]; Rate 250 g/ha, Postemergence",3
same,"Plant response rating, Corn","[11]; Rate 250 g/ha, Preemergence",1
same,"Plant response rating, Corn","[11]; Rate 500 g/ha, Postemergence",4
same,"Plant response rating, Corn","[11]; Rate 500 g/ha, Preemergence",2
same,"Plant response rating, Giant foxtail",[12]; [15],8
same,Giant foxtail plant response rating,"[12]; Rate 62 g/ha, Postemergence",2
same,Giant foxtail plant response rating,"[12]; Rate 125 g/ha, Postemergence",4
same,"Plant response rating, Giant foxtail","[12]; Rate 125 g/ha, Preemergence",9
same,"Plant response rating, Giant foxtail","[12]; Rate 250 g/ha, Postemergence",5
same,"Plant response rating, Giant foxtail","[12]; Rate 250 g/ha, Preemergence",10
same,"Plant response rating, Giant foxtail","[12]; Rate 500 g/ha, Postemergence",9
same,"Plant response rating, Giant foxtail","[12]; Rate 500 g/ha, Preemergence",10
same,"Plant response rating, Crabgrass",[13]; [15],3
same,Crabgrass plant response rating,"[13]; Rate 62 g/ha, Postemergence",3
same,Crabgrass plant response rating,"[13]; Rate 125 g/ha, Postemergence",3
same,"Plant response rating, Crabgrass","[13]; Rate 125 g/ha, Preemergence",5
same,"Plant response rating, Crabgrass","[13]; Rate 250 g/ha, Postemergence",7
same,"Plant response rating, Crabgrass","[13]; Rate 250 g/ha, Preemergence",8
same,"Plant response rating, Crabgrass","[13]; Rate 500 g/ha, Postemergence",9
same,"Plant response rating, Crabgrass","[13]; Rate 500 g/ha, Preemergence",10
same,Morningglory plant response rating,"[14]; Rate 62 g/ha, Postemergence",5
same,Morningglory plant response rating,"[14]; Rate 125 g/ha, Postemergence",9
same,"Plant response rating, Morningglory","[14]; Rate 125 g/ha, Preemergence",3
same,"Plant response rating, Morningglory","[14]; Rate 250 g/ha, Preemergence",10
same,"Plant response rating, Morningglory","[14]; Rate 500 g/ha, Postemergence",9
same,"Plant response rating, Morningglory","[14]; Rate 500 g/ha, Preemergence",10
